For 35 compounds, EC50 results are on record in US20050075375A1 (priority 2003, published 2005).

pEC50: −log10 of the molar value. Some results are limits rather than exact numbers.

In the first experiment the test system is monocistronic NK5.1 HCV replicon in Huh7 cells. The experiment in a line: HCV replicon assay, monocistronic replicon cell line. The class given is cell-based, hepatitis C virus. As to conditions: Hepatitis C virus, Huh-7, 72 h; Table 1; monocistronic replicon in Huh7 cells, 3 days incubation, HCV RNA/GAPDH RNA by TaqMan RT-PCR; read-out: Mono EC50 Median. The essentials: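 Huh7 cells carrying the monocistronic NK5.1 replicon, seeded 24 h before dosing, were exposed to six-point half-log compound series (0.6% DMSO) for 3 days at 37 °C. Replicon RNA was quantified by TaqMan RT-PCR, normalised to GAPDH and compared with DMSO controls to derive EC50.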
(In general: A replicon is a self-replicating genome or part of one, used to study replication in cells.)
A word on the pEC50: it is the negative decadic logarithm of the EC50, by convention in mol/L. Regarding `COc1ccc(-c2ccn(-c3ncccc3C)n2)c(O)c1` [Compound 91, 5-Methoxy-2-[1-(3-methyl-pyridin-2-yl)-1H-pyrazol-3-yl]-phenol], the pEC50 was 5.04.

Regarding `COc1ccc(OC)c(-c2nc(-c3ccccn3)no2)c1` [Compound 142, 2-[5-(2,5-Dimethoxy-phenyl)-[1,2,4]oxadiazol-3-yl]-pyridine], the pEC50 is 4.70.

For the compound `COc1ccc(OCc2ccccc2)c(-c2ccn(Cc3nccc(OC)c3OC)n2)c1` [Compound 103, 2-[3-(2-Benzyloxy-5-methoxy-phenyl)-pyrazol-1-ylmethyl]-3,4-dimethoxy-pyridine], the pEC50 is under 4.49.

Regarding `Oc1ccc(Br)cc1-c1nc(-c2ccccn2)no1` [Compound 144, 4-Bromo-2-(3-pyridin-2-yl-[1,2,4]oxadiazol-5-yl)-phenol], the pEC50 was 5.43.

On to `COc1cccc(-c2nc(-c3ccc(NC(=O)OC(C)(C)C)cn3)no2)c1O` [Compound 237, {6-[5-(2-Hydroxy-3-methoxy-phenyl)-[1,2,4]oxadiazol-3-yl]-pyridin-3-yl}-carbamic acid tert-butyl ester], for which the pEC50 is under 4.49.

For `COc1ccc(O)c(-c2nc(-c3ncccc3OC)no2)c1` [Compound 248, 4-Methoxy-2-[3-(3-methoxy-pyridin-2-yl)-[1,2,4]oxadiazol-5-yl]-phenol], the pEC50 was 4.89.

Consider `COc1cccc(-c2nc(-c3nccc4ccccc34)no2)c1O` [Compound 209, 2-(3-Isoquinolin-1-yl-[1,2,4]oxadiazol-5-yl)-6-methoxy-phenol], for which the pEC50 is 5.13.

Take `COc1ccc(-c2ccn(-c3ccccn3)n2)c(O)c1` [Compound 88, 5-Methoxy-2-(1-pyridin-2-yl-1H-pyrazol-3-yl)-phenol]: the negative-log EC50 (pEC50) was under 4.49.

As for `Cc1cccnc1-c1noc(-c2ccc(N(C)C)cc2O)n1` [Compound 180], the pEC50 was 5.68.

In the case of `COc1ccc(-c2ccnn2-c2ccccn2)c(F)c1` [Compound 54, 2-[5-(2-Fluoro-4-methoxy-phenyl)-pyrazol-1-yl]-pyridine], the pEC50 was 5.66.

For the compound `CCOC(=O)c1cc(-c2ccc3ccccc3c2)n(-c2ccccn2)n1` [Compound 66, 5-Naphthalen-2-yl-1-pyridin-2-yl-1H-pyrazole-3-carboxylic acid ethyl ester], the pEC50 is 4.52.

Consider `O=[N+]([O-])c1cccnc1-n1ccc(-c2ccccc2O)n1` [Compound 41, 2-[1-(3-Nitro-pyridin-2-yl)-1H-pyrazol-3-yl]-phenol], for which the negative-log EC50 (pEC50) is 5.22.

The same experiment, now with this note: Hepatitis C virus, Huh-7, 72 h; table T3 (compounds 471-640); monocistronic replicon in Huh7 cells, 3 days incubation, HCV RNA/GAPDH RNA by TaqMan RT-PCR; read-out: Mono EC50 Median.
As for `Oc1ccc(Br)cc1-c1nc(-c2ncccc2Br)n[nH]1` [Compound 492, 2-[5-(3-Bromo-pyridin-2-yl)-2H-[1,2,4]triazol-3-yl]-4-Bromo-phenol], the pEC50 is 5.27.

With `Cn1nc(-c2ccccn2)nc1-c1cc(Cl)ccc1O` [Compound 599, 4-Chloro-2-(2-methyl-5-pyridin-2-yl-2H-[1,2,4]triazol-3-yl)-phenol], the pEC50 is 4.92.

Turning to `COc1ccc(O)c(-c2nc(-c3ncccc3Br)n[nH]2)c1` [Compound 487, 2-[5-(3-Bromo-pyridin-2-yl)-2H-[1,2,4]triazol-3-yl]-4-Methoxy-phenol], the negative logarithm of the EC50 (pEC50) was under 4.49.

For `Cc1cccnc1-c1nc(-c2cc(O)ccc2O)n(C)n1` [Compound 616, 4-Hydroxy-2-[2-methyl-5-(3-methyl-pyridin-2-yl)-2H-[1,2,4]triazol-3-yl]-phenol], the pEC50 was 4.45.

Turning to `Cc1cccnc1-c1nc(-c2c(O)ccc3ccccc23)n(C)n1` [Compound 617, 1-[2-methyl-5-(3-methyl-pyridin-2-yl)-2H-[1,2,4]triazol-3-yl]-naphthalen-2-ol], the pEC50 is under 4.72.

Consider `CCN(CC)c1ccc(-c2nc(-c3ccc(C(F)(F)F)cn3)n[nH]2)c(O)c1` [Compound 521, 5-Diethylamino-2-[5-(5-trifluoromethyl-pyridin-2-yl)-2H-[1,2,4]triazol-3-yl]-phenol], for which the pEC50 was under 4.72.

For the compound `CCN(CC)c1ccc(-c2nc(-c3ncccc3C(F)(F)F)n[nH]2)c(O)c1` [Compound 545, 5-Diethylamino-2-[5-(3-trifluoromethyl-pyridin-2-yl)-2H-[1,2,4]triazol-3-yl]-phenol], the pEC50 is under 4.72.

Staying with this experiment, now noted: Hepatitis C virus, Huh-7; monocistronic NK5.1 HCV replicon in Huh7 cells; median value; read-out: Mono EC50 Median.
As to `Cc1cccc(-c2n[nH]c(-c3cc(Cl)ccc3O)n2)n1` [Compound 395, 4-Chloro-2-(5-(6-methyl-pyridin-2-yl)-2H-[1,2,4]triazol-3-yl)-phenol], the pEC50 is under 4.72.

On to `CCOc1cccc(-c2nc(-c3nccc4ccccc34)n[nH]2)c1O` [Compound 372, 6-Ethoxy-2-(5-isoquinolin-1-yl-2H-[1,2,4]triazol-3-yl)-phenol], for which the pEC50 is under 4.72.

Regarding `Cc1ccccc1-c1nnc(-c2ncccc2C(F)(F)F)o1` [Compound 340, 2-(5-o-Tolyl-[1,3,4]oxadiazol-2-yl)-3-trifluoromethyl-pyridine], the pEC50 is under 4.49.

Turning to `Fc1ccccc1-c1nnc(-c2ccccc2F)o1` [Compound 333, 2,5-Bis-(2-fluoro-phenyl)-[1,3,4]oxadiazole], the pEC50 was under 4.49.

In the case of `COc1ccccc1-c1nnc(-c2ccccc2)o1` [Compound 325, 2-(2-Methoxy-phenyl)-5-phenyl-[1,3,4]oxadiazole], the pEC50 is under 4.49.

With `Fc1ccccc1-c1nc(-c2nccc3ccccc23)n[nH]1` [Compound 470], the pEC50 is 5.14.

Take `COc1ccc(OC)c(-c2nc(-c3nccc4ccccc34)n[nH]2)c1` [Compound 380]: the negative-log EC50 (pEC50) was under 4.72.

Turning to `COc1ccc(F)c(-c2nc(-c3cccc(C)n3)n[nH]2)c1` [Compound 406, 2-[5-(2-Fluoro-5-methoxy-phenyl)-1H-[1,2,4]triazol-3-yl]-6-methyl-pyridine], the pEC50 is under 4.72.

With `COc1cccc(-c2nc(-c3ccc(NC(=O)OC(C)(C)C)cn3)no2)c1O` [Compound 237, {6-[5-(2-Hydroxy-3-methoxy-phenyl)-[1,2,4]oxadiazol-3-yl]-pyridin-3-yl}-carbamic acid tert-butyl ester], the pEC50 was under 4.49.

`Cc1cccc(-c2n[nH]c(-c3cccc4ccccc34)n2)n1` [Compound 390, 2-Methyl-6-(5-naphthalen-1-yl-1H-[1,2,4]triazol-3-yl)-pyridine]: the pEC50 was under 4.72.

Consider `COc1ccc(O)c(-c2nc(-c3ncccc3OC)no2)c1` [Compound 248, 4-Methoxy-2-[3-(3-methoxy-pyridin-2-yl)-[1,2,4]oxadiazol-5-yl]-phenol], for which the pEC50 is 4.89.

Regarding `COc1ccc(-c2nc(-c3ccc(NC(C)=O)cn3)no2)c(O)c1` [Compound 261, N-{6-[5-(2-Hydroxy-4-methoxy-phenyl)-[1,2,4]oxadiazol-3-yl]-pyridin-3-yl}-acetamide], the pEC50 is 4.34.

As to `Cc1cccc(-c2n[nH]c(-c3ccc(OCc4ccccc4)cc3O)n2)n1` [Compound 397, 5-Benzyloxy-2-(5-(6-methyl-pyridin-2-yl)-2H-[1,2,4]triazol-3-yl)-phenol], the pEC50 was under 4.72.

For `COc1ccc(O)c(-c2nc(-c3cnccc3C(F)(F)F)n[nH]2)c1` [Compound 414, 4-Methoxy-2-[5-(4-trifluoromethyl-pyridin-3-yl)-2H-[1,2,4]triazol-3-yl]-phenol], the pEC50 was under 4.72.

With `COc1ccc(-c2nc(-c3cnccc3C(F)(F)F)n[nH]2)c(O)c1` [Compound 421, 5-Methoxy-2-[5-(4-trifluoromethyl-pyridin-3-yl)-2H-[1,2,4]triazol-3-yl]-phenol], the pEC50 is under 4.72.

For the compound `Oc1ccc(OC(F)(F)F)cc1-c1nc(-c2ccc(C(F)(F)F)cn2)no1` [Compound 287, 4-Trifluoromethoxy-2-[3-(5-trifluoromethyl-pyridin-2-yl)-[1,2,4]oxadiazol-5-yl]-phenol], the pEC50 was 5.77.

Turning to `COc1ccccc1-c1nnc(-c2c(Cl)cccc2Cl)o1` [Compound 329, 2-(2,6-Dichloro-phenyl)-5-(2-methoxy-phenyl)-[1,3,4]oxadiazole], the pEC50 is under 4.49.

Turning to `Oc1ccc(Br)cc1-c1nc(-c2nccc3ccccc23)n[nH]1` [Compound 374, 4-Bromo-2-(5-isoquinolin-1-yl-2H-[1,2,4]triazol-3-yl)-phenol], the negative-log EC50 (pEC50) is under 4.72.
